Experimental data reported in ChEMBL document CHEMBL2086339 (J Med Chem, 2012).
Values after ≈ are worked out from the molar mass of the structure shown.

Key:
[1] = Solubility of the compound at pseudo-thermodynamic equilibrium after 24 hrs by UPLC/UV/TOF-MS analysis at pH 7.4; assay type: physicochemical; details: buffer
[2] = Oral bioavailability in Long Evans rat at 20 mg/kg; assay type: ADME, organism-based; details: in vivo
[3] = Metabolic stability in rat plasma assessed as compound remaining at 250 uM after 3 hrs by LC-ESI-MS-MS analysis; assay type: ADME, cell-free; details: read-out: Stability
[4] = Intrinsic clearance in rat liver microsomes assessed per mg of protein at 1 uM by UPLC/TOF-MS analysis; assay type: ADME, Microsome; details: read-out: CLH
[5] = AUC (0 to infinity) in Long Evans rat at 20 mg/kg, po; assay type: ADME, organism-based; design: time infinity, dose 20 mg/kg, route oral; details: plasma
[6] = Tmax in Long Evans rat at 20 mg/kg, po; assay type: ADME, organism-based; design: dose 20 mg/kg, route oral; details: in vivo
[7] = Cmax in Long Evans rat brain at 10 mg/kg, po; assay type: ADME, organism-based; design: dose 10 mg/kg, route oral
[8] = Cmax in Long Evans rat at 20 mg/kg, po; assay type: ADME, organism-based; design: dose 20 mg/kg, route oral; details: in vivo
[9] = Ratio of drug level in brain to plasma in Long Evans rat at 10 mg/kg, po; assay type: ADME, organism-based; design: dose 10 mg/kg, route oral; details: read-out: BPR

| Compound | solubility thermodynamic at 24 h [1] [µM] | also measured |
| --- | --- | --- |
| O=C(CCCCN1CCCCC1)Nc1cc(-c2ccc(C(F)(F)F)cc2)n[nH]1 | 157 (≈ 61.9 µg/mL) |  |
| COc1ccc(-c2cc(NC(=O)CCCCN3CCCOCC3)[nH]n2)cc1 | 176 (≈ 65.6 µg/mL) |  |
| COc1ccc(-c2cc(NC(=O)CCCCN3CCC(C)CC3)n[nH]2)cc1 | 198 (≈ 73.4 µg/mL) |  |
| COc1ccc(-c2n[nH]c(NC(=O)CCCCN3CCCN(C(C)=O)CC3)c2C)cc1 | 151 (≈ 64.6 µg/mL) |  |
| COc1ccc(-c2cc(NC(=O)CCCCN3CCCN(C(C)=O)CC3)[nH]n2)cc1 | 170 (≈ 70.3 µg/mL) | bioavailability [2]: 12%; remaining at 3 h, 250 µM [3]: 55%; microsomal CLint at 1 µM [4]: 13 µL/min/mg; AUC(0-inf) [5]: 1.37 µM·h; Tmax [6]: 49.8 min; Cmax [7]: 3.7 ng/g; Cmax [8]: 180 nM; Kp [9]: 0.38 |
| COc1ccc(-c2cc(NC(=O)CCCCN3CCC(C(N)=O)CC3)[nH]n2)cc1 | 184 (≈ 73.5 µg/mL) |  |
| COc1ccc(-c2n[nH]c(NC(=O)CCCCN3CCCCC3)c2C)cc1 | 188 (≈ 69.7 µg/mL) |  |
| O=C(CCCCN1CCCCC1)Nc1cc(-c2ccco2)n[nH]1 | 250 (≈ 79.1 µg/mL) |  |
| COc1ccc(-c2cc(NC(=O)CCCCN3CCNC(=O)C3)[nH]n2)cc1 | 92 (≈ 34.2 µg/mL) |  |
| COc1ccccc1-c1cc(NC(=O)CCCCN2CCCCC2)[nH]n1 | 178 (≈ 63.5 µg/mL) |  |
| COc1ccc(-c2cc(NC(=O)CCCCN3CCOCC3)[nH]n2)cc1 | 176 (≈ 63.1 µg/mL) |  |
| O=C(CCCCN1CCCCC1)Nc1cc(-c2ccc(F)cc2)n[nH]1 | 237 (≈ 81.6 µg/mL) |  |
| O=C(CCCCN1CCCCC1)Nc1cc(-c2ccc(Cl)cc2)n[nH]1 | 182 (≈ 65.7 µg/mL) |  |
| O=C(CCCCN1CCCCC1)Nc1cc(-c2ccncc2)n[nH]1 | 226 (≈ 74 µg/mL) |  |
| COc1cccc(-c2cc(NC(=O)CCCCN3CCCCC3)[nH]n2)c1 | 213 (≈ 75.9 µg/mL) |  |
| COc1ccc(-c2cc(NC(=O)CCCCN3CCCCC3)[nH]n2)cc1 | 219 (≈ 78.1 µg/mL) |  |
| COc1ccc(-c2c[nH]c(NC(=O)CCCCN3CCCN(C(C)=O)CC3)n2)cc1 | 193 (≈ 79.8 µg/mL) |  |
| COc1ccc(-c2cc(NC(=O)CCCCN3CCNC(=O)CC3)[nH]n2)cc1 | 117 (≈ 45.1 µg/mL) |  |
| COc1ccc(-c2cc(NC(=O)CCCCN3CCCCCC3)n[nH]2)cc1 | 133 (≈ 49.3 µg/mL) |  |
| COc1ccc(-c2cc(NC(=O)CCCCN3CCCNCC3)[nH]n2)cc1 | 153 (≈ 56.8 µg/mL) |  |
| COc1ccc(-c2cc(NC(=O)C(C)CCCN3CCCN(C(C)=O)CC3)[nH]n2)cc1 (stereo unspecified) | 128 (≈ 54.7 µg/mL) | remaining at 3 h, 250 µM [3]: > 99% |
| O=C(CCCCN1CCCCC1)Nc1cc(-c2ccc(Br)cc2)n[nH]1 | 144 (≈ 58.4 µg/mL) |  |
